PubChem BioAssay (NCI)
Values joined by “and” are separate entries in the source; they are usually repeats but may differ in a detail not shown here. Identical values can stand only once.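 Exposure lasted 48 hours, with cells grown in 96-well plates and compounds tested at five concentrations. GI50 is the concentration that inhibits growth by half. At the TGI there is no net growth.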

Experiments:
Experiment in all cases: NCI-60 cell line screen, 48 h
SF-295 CNS = system: SF-295 CNS
UACC-257 melanoma = system: UACC-257 melanoma
786-0 renal = system: 786-0 renal
OVCAR-8 ovarian = system: OVCAR-8 ovarian
SF-268 CNS = system: SF-268 CNS
TK-10 renal = system: TK-10 renal
NCI-H522 lung = system: NCI-H522 lung
SF-539 CNS = system: SF-539 CNS
CCRF-CEM leukemia = system: CCRF-CEM leukemia
NCI/ADR-RES ovarian = system: NCI/ADR-RES ovarian

Structure (SMILES)	TGI (SF-295 CNS)	TGI (UACC-257 melanoma) [µM]	TGI (786-0 renal)	TGI (OVCAR-8 ovarian) [µM]	TGI (SF-268 CNS) [µM]	TGI (TK-10 renal)	TGI (NCI-H522 lung) [µM]	TGI (SF-539 CNS) [µM]	TGI (CCRF-CEM leukemia) [µM]	TGI (NCI/ADR-RES ovarian) [µM]	GI50 (UACC-257 melanoma)	GI50 (TK-10 renal) [µM]	GI50 (NCI-H522 lung)	GI50 (OVCAR-8 ovarian) [µM]	GI50 (SF-539 CNS) [µM]	GI50 (SF-295 CNS)	GI50 (CCRF-CEM leukemia)	GI50 (SF-268 CNS) [µM]	GI50 (NCI/ADR-RES ovarian) [µM]
C=CCOC(C)(C)C1=CCC(C)CC1 (configuration not stated)	> 100 µM	> 100	> 100 µM	> 100	> 100	> 100 µM	> 100	> 100	–	–	–	–	–	–	–	–	–	–	–
Cc1cc(-c2ccc(N=Nc3ccc4c(S(=O)(=O)O)cc(S(=O)(=O)O)c(N)c4c3O)c(C)c2)ccc1N=Nc1ccc2c(S(=O)(=O)O)cc(S(=O)(=O)O)c(N)c2c1O	> 100 µM	> 100	–	> 100	> 100	–	> 100	> 100	> 100	> 100	–	–	–	–	–	–	–	–	–
Nc1c(C(=O)O)c2ccc([N+](=O)[O-])cc2c(=O)n1-c1nc2ccccc2s1	> 100 µM	–	> 100 µM	> 100	> 100	–	> 100	–	> 100	> 100	–	–	–	–	–	–	–	–	–
Cc1cc2nc(N3C(=O)/C(=C/Cc4ccco4)N=C3c3ccccc3)sc2cc1C	> 100 µM	> 100	96.6 µM	> 100	> 100	> 100 µM	–	> 100	28.1	> 100	–	–	–	–	–	–	–	–	–
O=C(Nc1cccc2ccccc12)c1cc2ccccc2oc1=O	–	> 100	50.3 µM	> 100	> 100	–	–	81.8	> 100	> 100	–	–	–	–	–	–	–	–	–
COc1ccc(/C(C=O)=C(\Cl)c2ccc(OC)c(OC)c2)cc1	> 100 µM	> 100	–	> 100	> 100	> 100 µM	33.5	> 100	> 100	–	–	–	–	–	–	–	–	–	–
COc1cccc2c(=O)oc(-c3ccccc3C)nc12	88.9 µM	–	> 100 µM	> 100	> 100	> 100 µM	> 100	69.4	73	> 100	–	–	–	–	–	–	–	–	–
CN(Cc1cnc2nc(N)nc(N)c2n1)c1ccc(C(=O)NC(CCC(=O)O)C(=O)O)c2ccccc12 (configuration not stated)	> 1000 µM	–	> 1000 µM	> 1000	> 1000	> 1000 µM	7.12	–	> 1000	> 1000	< 0.0363 µM	> 1000	0.0826 µM	–	–	–	–	–	–
Cc1nc(C(=Nc2ccc(Br)cc2)Nn2cnnc2)no1	> 100 µM	> 100	> 100 µM	> 100	–	–	> 100	–	> 100	> 100	–	–	–	–	–	–	–	–	–
Cc1ccc(S(=O)(=O)OCCN(CCOS(=O)(=O)c2ccc(C)cc2)c2ccc(C=O)cc2)cc1	> 100 µM	61	–	> 100	> 100	> 100 µM	34.1	> 100	> 100	> 100	–	–	–	–	–	–	–	–	–
COc1cccc(/C=N/[N-]C(N)=O)c1[O-].[Cu+2].[OH3+]	28.9 µM	28.5	30.3 µM	24.4	32.9	–	–	33.5	–	–	–	–	–	10.7	–	–	–	–	–
NCCCNc1nc2ccccc2c2c(=O)c3cc(Cl)ccc3sc12	–	3.74	–	–	–	3.68 µM	3.14	3.15	–	–	2 µM	2.18	1.66 µM	–	1.72	–	–	–	–
CC(=O)OC12c3ccccc3C(c3ccccc31)C1C(=O)N(N=C(C)C)C(=O)C12 (configuration not stated)	> 100 µM	> 100	> 100 µM	> 100	> 100	> 100 µM	–	> 100	> 100	> 100	–	–	–	–	–	–	–	–	–
CC(C)CNP(=O)(NCC(C)C)Oc1ccc(CC(NC(=O)OCc2ccccc2)C(=O)OCc2ccccc2)cc1 (configuration not stated)	98.4 µM	59.1	28.9 µM	32.7	33	> 100 µM	30.5	–	32.8	> 100	–	–	–	–	–	–	–	–	–
CC(C)C(NCc1c2ccccc2[n+](C)c2ccccc12)C(=O)O (configuration not stated)	20.5 µM	19.5	15.6 µM	15.1	10.9	21.3 µM	3.69	14.3	–	–	–	–	–	–	–	–	–	–	–
N#Cc1cc(F)cc(Oc2ccc(S(=O)(=O)C(F)F)c3c2CC(F)(F)[C@H]3O)c1	79.2 µM	79.1	–	> 100	> 100	82.4 µM	88.7	> 100	> 100	> 100	24.6 µM	28.4	19.1 µM	33.8	37	24.9 µM	22.9 µM	35.4	26.4
CC(C)(NO)/C(=N\O)c1ccccc1	> 10 µM	> 10	> 10 µM	> 10	> 10	> 10 µM	> 10	–	> 10	> 10	–	–	–	–	–	–	–	–	–

Structure (SMILES)	TGI (SF-295 CNS)	TGI (UACC-257 melanoma) [µM]	TGI (786-0 renal)	TGI (OVCAR-8 ovarian) [µM]	TGI (SF-268 CNS) [µM]	TGI (TK-10 renal)	TGI (NCI-H522 lung) [µM]	TGI (SF-539 CNS) [µM]	TGI (CCRF-CEM leukemia) [µM]	TGI (NCI/ADR-RES ovarian) [µM]	GI50 (UACC-257 melanoma)	GI50 (TK-10 renal) [µM]	GI50 (NCI-H522 lung)	GI50 (OVCAR-8 ovarian) [µM]	GI50 (SF-539 CNS) [µM]	GI50 (SF-295 CNS)	GI50 (CCRF-CEM leukemia)	GI50 (SF-268 CNS) [µM]	GI50 (NCI/ADR-RES ovarian) [µM]
[N-]=[N+]=CC(=O)C1CCN(c2ccccc2)C1=O (configuration not stated)	> 10 µM	> 10	> 10 µM	> 10	> 10	> 10 µM	–	> 10	> 10	> 10	–	–	–	–	–	–	–	–	–
NC1CCC2(O)c3ccccc3C2C1 (configuration not stated)	> 100 µM	> 100	> 100 µM	> 100	> 100	> 100 µM	> 100	–	> 100	–	–	–	–	–	–	–	–	–	–
COC(=O)[C@H](C)NC(=O)[C@H](NS(=O)(=O)c1nc2ccccc2s1)c1ccccc1	> 100 µM	26.3	80.4 µM	33.7	33.5	> 100 µM	–	30.4	> 100	> 100	–	–	–	–	–	–	–	–	–
CN1C(c2ccccc2)CC(O)CC1c1ccccc1 (configuration not stated)	> 100 µM	> 100	> 100 µM	> 100	> 100	> 100 µM	> 100	> 100	> 100	–	–	–	–	–	–	–	–	–	–
O=C(OCCN=c1c2ccccc2ccc2ccccc12)c1cc([N+](=O)[O-])cc([N+](=O)[O-])c1	> 100 µM	> 100	> 100 µM	> 100	> 100	> 100 µM	–	> 100	> 100	> 100	–	–	–	–	–	–	–	–	–
COC(=O)c1c(O)ccc2c1c1c(n2Cc2ccc(OC)cc2)C(=O)c2ccccc2C1	> 100 µM	> 100	> 100 µM	> 100	> 100	> 100 µM	–	> 100	89.4	> 100	–	–	–	–	–	–	–	–	–
O=C(N/N=C/c1ccccc1)c1c(F)c(F)c(F)c(F)c1F	> 100 µM	> 100	–	> 100	> 100	> 100 µM	49.2	> 100	> 100	> 100	–	–	–	–	–	–	–	–	–
COc1c(OC2OC(CO)C(O)C(O)C2O)cc2c(c1OC)-c1ccc(OC)c(=O)cc1C(NC(C)=O)CC2 (configuration not stated)	> 100 µM	> 100	> 100 µM	> 100	> 100	> 100 µM	> 100	> 100	> 100	–	–	–	–	–	–	–	–	–	–
O=C(O)C1CCC(=O)N1C(=O)COc1cc(Cl)c(Cl)cc1Cl (configuration not stated)	> 100 µM	> 100	–	> 100	> 100	> 100 µM	> 100	–	–	–	–	–	–	–	–	–	–	–	–
COC(=O)C(Cc1ccccc1)NC(=O)C(CNC(=O)OCc1ccccc1)C(=O)OCc1ccccc1 (configuration not stated)	> 100 µM and 80.2 µM	–	–	> 100	–	–	> 100	–	> 100	> 100	–	–	–	–	–	> 100 µM and 28.6 µM	> 100 µM and 38.5 µM	–	–
CCCCCCCCCCCCOCC(COP(=O)(O)OCCN=[N+]=[N-])OC(=O)CCCCCCCCCCC (configuration not stated)	> 100 µM	–	> 100 µM	> 100	> 100	> 100 µM	> 100	> 100	–	> 100	–	–	–	–	–	–	–	–	–
[C-]#[O+].[Cl][Sn]([Cl])[Cl].[Cl][Sn]([Cl])[Cl].[Pt].c1cnc2c(c1)ccc1cccnc12	> 36.5 µM	> 100	–	> 100	> 79	–	> 100	16.6	> 29.8	10.1	–	–	–	–	–	–	–	–	–
O=C(Nc1ccc(-n2cc(-c3ccncc3)c(-c3ccc(O)c(Cl)c3)n2)cc1)Nc1cc(C(F)(F)F)cc(C(F)(F)F)c1	6.56 µM	20.5	–	11.7	16	13.6 µM	15	15.3	19.2	22.5	5.81 µM	3.55	3.79 µM	3.44	3.81	2.08 µM	4.06 µM	4.37	4.94
CC(C)(C)C(=O)c1c(O)c2ccccc2c2ccccc2c1=O	> 100 µM	> 100	> 100 µM	> 100	> 100	> 100 µM	> 100	> 100	> 100	–	–	–	–	–	–	–	–	–	–
CC1CC(c2ccccc2)=Nc2ccccc2S1 (configuration not stated)	> 100 µM	> 100	–	> 100	> 100	> 100 µM	> 100	> 100	> 100	–	–	–	–	–	–	–	–	–	–
COc1ccccc1N=Nc1c(O)ccc2ccccc12	48.3 µM and 78.2 µM	> 100	26.7 µM and 40.3 µM	> 100	> 100	31.8 µM and 59.1 µM	> 100	–	> 100	> 100	41.5 µM and > 100 µM	–	> 100 µM and 41.8 µM	–	–	–	–	–	–
